Experimental data taken from PubChem BioAssay AID1963847 (Molecular Pharmacology Branch, DTP, NCI, 2024).

System: 415267-285-R-J2-PDC complex spheroid viability
Assay: Anticancer human tumor 415267-285-R-J2-PDC patient-derived breast carcinoma cell line growth inhibition [POLQ]
Details: for IC50: curve of first compound; for viability, T/C: stronger effect = lower value; active means viability on the fitted dose curve at most 10% of control; inactive means the rest
Procedure: Multicellular complex tumor spheroid response to Polymerase (POL) inhibitors (novobiocin, ART-558, RP6685) in combination with a variety of drugs and investigational agents in selected tumor cell lines
The POL inhibitors (novobiocin, ART-558, and RP6685) were evaluated both individually and in combination with standard of care and investigational anticancer small molecules within a complex spheroid model of solid tumors. . Complex spheroids include a stromal component modeled by human endothelial cells (HUVEC) and fibroblasts modeled by human mesenchymal stem cells (MSCs). The concentration ranges selected for each drug and investigational agent were based upon clinically achievable concentrations if the clinical Cmax of the agent was known.
Compounds. The drugs and investigational agents: novobiocin (NSC847541), ART-558 (NSC835418), RP-6685 (NSC848927), peposertib (NSC802822), ceralasertib (NSC780249), elimusertib (NSC800525), camonsertib (NSC841442), AZD-1390 (NSC803789), olaparib (NSC753686), talazoparib (NSC767125), rucaparib (NSC756644), sotorasib (NSC818433), MRTX-1133 (NSC836407), SN-38 (NSC673596), topotecan (NSC609699), epotoside (NSC141540), doxorubicin (NSC123127), gemcitabine (NSC613327), 5-fluorouracil (NSC19893), paclitaxel (NSC125973), vemurafenib (NSC761431), MSA-2 (NSC828583), SN-011 (NSC837082), adavosertib (NSC754352), prexasertib (NSC758257), carboplatin (NSC241240) and oxaliplatin (NSC266046), were obtained from the National Cancer Institute (NCI) Developmental Therapeutics Program Chemical Repository (21). The FDA-approved anticancer drug set is available from the Developmental Therapeutics Program at https://dtp.cancer.gov/organization/dscb/obtaining/. […] The stock solutions were prepared in dimethyl sulfoxide (DMSO, Sigma-Aldrich, St. Louis, MO, cat. D2650), except for the platinum compounds which were prepared in saline (Quality Biological, Gaithersburg, MD, cat. 114-055-101), at 800-fold the tested concentration and stored at -70 degrees C prior to their use. All drugs and investigational agents were tested over a range starting from a high concentration at or near the clinical Cmax and decreasing in half-log increments. If the clinical Cmax for an agent had not been determined, the highest concentration tested was 10 microM, except for SN-38, which was tested at a high concentration of 1 microM.
Cell Culture. All cells were maintained in an incubator at 37 degrees C and 5% CO2 with 95% humidity. The PDC lines were cultured according to standard operating procedures established by the NCI PDMR (https://pdmr.cancer.gov). Table 3 of the manuscript, lists the cell lines along with the number of the three cell types plated to form the mct-spheroids and media for tumor cell growth. After thawing, all PDC lines, except 997537-175-T-J1-PDC and 415267-285-R-J2-PDC, were cultured in Matrigel-coated flasks prepared with a working solution of 1X Ham's F-12 nutrient mix, without supplementation (Thermo Fisher Scientific, cat. 11765054), 100 U/mL penicillin-streptomycin (Thermo Fisher Scientific, cat. 15140122), and 2.5% Matrigel (Corning Inc., Corning, NY, cat. 354248) for the first three passages. The two PDC lines 997537-175-T-J1-PDC and 415267-285-R-J2-PDC were cultured on uncoated flasks. The 857933-349-R-J2-PDC line was cultured in 6C/Colon 1B media containing advanced DMEM/F-12 (Thermo Fisher Scientific, cat. 12634028), 10 mM HEPES (Thermo Fisher Scientific, cat. 15630080), 1X GlutaMAX supplement (Thermo Fisher Scientific, cat. 35050061), 0.1 mg/mL primocin (InvivoGen, San Diego, CA, cat. ant-pm-2), 10% defined fetal bovine serum, heat inactivated (HyClone Laboratories Inc., Logan, UT, cat. SH30070.03HI), 50% L-WRN conditioned media (ATCC, cat. CRL-3276), 1.25 mM N-Acetyl-L-cysteine (Sigma-Aldrich, cat. A9165), 10 mM nicotinamide (Sigma-Aldrich, cat. N0636), 1X B-27 supplement (Thermo Fisher Scientific, cat. 17504044), 1X N-2 supplement (Thermo Fisher Scientific, cat. […]

[1] = second compound 0.0316 µM, first compound 0.0316 µM
[2] = second compound 0.0316 µM, first compound 0.1 µM
[3] = second compound 0.0316 µM, first compound 0.316 µM
[4] = second compound 0.0316 µM, first compound 1 µM
[5] = second compound 0.1 µM, first compound 0.0316 µM
[6] = second compound 0.1 µM, first compound 0.1 µM
[7] = second compound 0.1 µM, first compound 0.316 µM
[8] = second compound 0.1 µM, first compound 1 µM
[9] = second compound 0.316 µM, first compound 0.0316 µM
[10] = second compound 0.316 µM, first compound 0.1 µM
[11] = second compound 0.316 µM, first compound 0.316 µM
[12] = second compound 0.316 µM, first compound 1 µM
[13] = second compound 1 µM, first compound 0.0316 µM
[14] = second compound 1 µM, first compound 0.1 µM
[15] = second compound 1 µM, first compound 0.316 µM
[16] = second compound 1 µM, first compound 1 µM
[17] = second compound 3.16 µM, first compound 0.0316 µM
[18] = second compound 3.16 µM, first compound 0.1 µM
[19] = second compound 3.16 µM, first compound 0.316 µM
[20] = second compound 3.16 µM, first compound 1 µM
[21] = second compound 10 µM, first compound 0.0316 µM
[22] = second compound 10 µM, first compound 0.1 µM
[23] = second compound 10 µM, first compound 0.316 µM
[24] = second compound 10 µM, first compound 1 µM
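Further: spheroids exposed to compounds for one week before readout.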
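Wherever viability, T/C is given: luminescence used as stand-in measure of viable cells.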

CC1COCCN1c1cc(C2(S(C)(=N)=O)CC2)nc(-c2ccnc3[nH]ccc23)n1 (centres undefined) + Cc1cccc(N(C)C(=O)C2C(O)CCN2c2nc(C)cc(C(F)(F)F)c2C#N)c1
473 nM: IC50 (second compound 1 µM)
501 nM: IC50 (second compound 10 µM)
441 nM: IC50 (second compound 0.316 µM)
447 nM: IC50 (second compound 0.1 µM)
488 nM: IC50 (second compound 0.0316 µM)
inactive: viability, T/C [1] 88.4% | viability, T/C [2] 102% | viability, T/C [3] 70.3% | viability, T/C [4] 15.8% | viability, T/C [5] 92.8% | viability, T/C [6] 96.3% | viability, T/C [7] 65% | viability, T/C [8] 14.3% | viability, T/C [9] 102% | viability, T/C [10] 98.7% | viability, T/C [11] 62.8% | viability, T/C [12] 17.7% | viability, T/C [13] 106% | viability, T/C [14] 107% | viability, T/C [15] 70.2% | viability, T/C [16] 12.4% | viability, T/C [17] 94.2% | viability, T/C [18] 94.8% | viability, T/C [19] 62.4% | viability, T/C [20] 12.5% | viability, T/C [21] 91.6% | viability, T/C [22] 102% | viability, T/C [23] 72.7% | viability, T/C [24] 15.7%
422 nM: IC50 (second compound 3.16 µM)
active: viability, T/C (second compound 0.0316 µM, first compound 3.16 µM) 6.51% | viability, T/C (second compound 0.0316 µM, first compound 10 µM) 5.21% | viability, T/C (second compound 0.1 µM, first compound 3.16 µM) 5.97% | viability, T/C (second compound 0.1 µM, first compound 10 µM) 4.58% | viability, T/C (second compound 0.316 µM, first compound 3.16 µM) 6.78% | viability, T/C (second compound 0.316 µM, first compound 10 µM) 4.96% | viability, T/C (second compound 1 µM, first compound 3.16 µM) 6.47% | viability, T/C (second compound 1 µM, first compound 10 µM) 5.16% | viability, T/C (second compound 3.16 µM, first compound 3.16 µM) 6.4% | viability, T/C (second compound 3.16 µM, first compound 10 µM) 5.39% | viability, T/C (second compound 10 µM, first compound 3.16 µM) 6.3% | viability, T/C (second compound 10 µM, first compound 10 µM) 4.96%

CCc1c2c(nc3ccc(O)cc13)-c1cc3c(c(=O)n1C2)COC(=O)[C@]3(O)CC + Cc1cccc(N(C)C(=O)C2C(O)CCN2c2nc(C)cc(C(F)(F)F)c2C#N)c1
active: viability, T/C [1] 5.73% | viability, T/C [2] 3.97% | viability, T/C [3] 3.18% | viability, T/C [4] 1.44% | viability, T/C [5] 5.47% | viability, T/C [6] 4.21% | viability, T/C [7] 3.59% | viability, T/C [8] 1.35% | viability, T/C [9] 5.27% | viability, T/C [10] 3.49% | viability, T/C [11] 3.51% | viability, T/C [12] 1.32% | viability, T/C [13] 6.43% | viability, T/C [14] 4.75% | viability, T/C [15] 3.42% | viability, T/C [16] 0.75% | viability, T/C (second compound 3.16 µM, first compound 0.01 µM) 8.16% | viability, T/C [17] 6.7% | viability, T/C [18] 4.46% | viability, T/C [19] 4.26% | viability, T/C [20] 1.28% | viability, T/C [21] 6.91% | viability, T/C [22] 3.72% | viability, T/C [23] 3.54% | viability, T/C [24] 1.1%
inactive: viability, T/C (second compound 0.0316 µM, first compound 0.00316 µM) 27.1% | viability, T/C (second compound 0.0316 µM, first compound 0.01 µM) 11.3% | viability, T/C (second compound 0.1 µM, first compound 0.00316 µM) 26.4% | viability, T/C (second compound 0.1 µM, first compound 0.01 µM) 10% | viability, T/C (second compound 0.316 µM, first compound 0.00316 µM) 32.5% | viability, T/C (second compound 0.316 µM, first compound 0.01 µM) 11.6% | viability, T/C (second compound 1 µM, first compound 0.00316 µM) 34% | viability, T/C (second compound 1 µM, first compound 0.01 µM) 9.41% | viability, T/C (second compound 3.16 µM, first compound 0.00316 µM) 34.7% | viability, T/C (second compound 10 µM, first compound 0.00316 µM) 29.4% | viability, T/C (second compound 10 µM, first compound 0.01 µM) 10.3%
< 3.16 nM: IC50 (second compound 0.0316 µM) | IC50 (second compound 0.1 µM) | IC50 (second compound 0.316 µM) | IC50 (second compound 1 µM) | IC50 (second compound 3.16 µM) | IC50 (second compound 10 µM)
